These are literature values, as cited in patent US10213443B2, “Tetracycline topical formulations, preparation and uses thereof in treating an ocular condition” (Hovione International Ltd., priority 2012, dated 2019).

The conditions of data set [1]: in man.
The conditions of data set [2]: compared with doxycycline.

On to `CN(C)c1ccc(O)c2c1C[C@H]1C[C@H]3[C@H](N(C)C)C(O)=C(C(N)=O)C(=O)[C@@]3(O)C(O)=C1C2=O` [Minocycline, minocycline], for which, in data set [1], the oral bioavailability is reported as roughly 100%. Further, the phototoxicity entry in data set [2] was “not phototoxic”.
